# Results taken from patent US5654296A, “Condensed heterocyclic compounds, their production and use” (priority 1994, dated 1997).
# Where a name gives a salt, the structure may show the parent alone.
# Columns and labels:
# [1] = target: T1, GnRH receptors (rat pituitary anterior lobe membrane fraction) (Rattus norvegicus, UniProt P30969); experiment: 125I-leuprolerin GnRH receptor binding inhibition test, rat pituitary anterior lobe membrane fraction; conditions: 4° C., 90 minutes, read-out: Binding inhibitory activity (IC50 μM) Rat
# T1 construct: the anterior lobe of the pituitary gland was isolated and washed with ice-cooled homogenate buffer; from tissue; host or cells: anterior lobe of the pituitary gland, male Wistar rats (8 weeks old), membrane fraction
# T1 sequence (P30969 1-327): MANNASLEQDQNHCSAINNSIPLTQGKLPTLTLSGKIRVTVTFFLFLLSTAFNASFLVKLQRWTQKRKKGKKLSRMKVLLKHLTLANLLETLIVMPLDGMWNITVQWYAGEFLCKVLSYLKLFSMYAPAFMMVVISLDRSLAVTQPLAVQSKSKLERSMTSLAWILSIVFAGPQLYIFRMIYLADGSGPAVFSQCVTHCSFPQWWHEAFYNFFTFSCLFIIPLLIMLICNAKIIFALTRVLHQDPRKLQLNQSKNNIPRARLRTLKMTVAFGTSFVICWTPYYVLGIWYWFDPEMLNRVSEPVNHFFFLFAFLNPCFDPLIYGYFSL
# Method: Ten (10) μl of 3×10^4 M aqueous leuprolerin solution and 10 μl of 0.01 mg/ml lactoperoxidase were taken in a tube and 10 μl of Na^125 I solution (37 MBq) was added. After stirring, 10 μl of 0.001% H2 O2 was added and the reaction was conducted at room temperature for 20 minutes. Then, 700 μl of 0.05% TFA solution was added to the tube to terminate the reaction and the reaction mixture was purified by reverse-phase HPLC. The HPLC conditions are shown below. ^125 I-leuprolerin was eluted after a retention time of 26-27 minutes. (B) Preparation of a Rat Pituitary Anterior Lobe Membrane Fraction Containing GnRH Receptors […] The pituitary tissue was floated in 2 ml of the homogenate buffer and homogenized using a Polytron homogenizer. The homogenate was centrifuged at 700×G for 15 minutes. The supernatant was taken in an ultracentrifuge tube and centrifuged at 100,000×G for 1 hour to provide a membrane fraction pellet. […] The membrane fraction recovered as a pellet was resuspended in 10 ml of assay buffer, divided into portions, preserved at -80° C. and thawed when needed. […] For the rat and human membrane fractions prepared in (B) and (D), each membrane fraction was diluted with assay buffer to a concentration of 200 μg/ml and distributed in 188 μl portions into tubes. As to the bovine membrane fraction prepared in (C), the membrane fraction was diluted with assay buffer to 750 μg/ml and distributed in 188 μl portions into tubes. […] Where the rat or bovine pituitary anterior lobe membrane fraction was used, the reaction was conducted at 4° C. for 90 minutes. Where the membrane fraction of the CHO with human GnRH receptors expressed was used, the reaction was carried out at 25° C. for 60 minutes. […] After filtration, the radioactivity of ^125 I-leuprolerin remaining on the filter was measured with a γ-counter. The expression (TB-SB)/(TB-NSB)×100 (where SB=radioactivity with the compound added, TB=maximum bound radioactivity, NSB=nonspecifically bound radioactivity) was calculated to find the binding inhibition rate of each test compound.
# serotonine (5-HT) uptake = experiment: Activity to inhibit serotonine (5-HT) uptake; assay type: biochemical; conditions: rat whole brain; 3H-5-HT 10 nM; 37° C.; pH 7.4; read-out: 5-HT uptake inhibitory activity (IC50 μM)
# Outline: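 Rat whole-brain synaptosomal pellet (prepared in sucrose with 10 μM pargyline) in Krebs-Ringer-phosphate buffer pH 7.4, preincubated with test drug 5 min at 37° C. 3H-5-HT (final 10 nM) then added for 5 min at 37° C.; filter-bound radioactivity counted by liquid scintillation; IC50 = dose halving uptake.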
# [2] = system: norepinephrine (NE) uptake; experiment: Activity to inhibit norepinephrine (NE) uptake; assay type: biochemical; conditions: rat cerebral cortex; 3H-NE; read-out: NE uptake inhibitory activity (IC50 μM)
# Method: The experiment was performed in accordance with the method of Hyttel et al. [Psychopharmacology 60, 13, 1978]. The whole brain of a rat was homogenized in 40 volumes of ice-cooled 0.32M sucrose solution containing 10 μM pargyline and, then, centrifuged (600×G) for 10 minutes. The supernatant was centrifuged (2500×G) for 55 minutes to provide a pellet. This pellet was suspended in Krebs-Ringer-phosphate buffer (pH 7.4; 122 mM NaCl, 4.82 mM KCl, 0.972 mM CaCl2, 1.21 mM MgSO4, 12.7 mM Na2 HPO4, 2.97 mM NaH2 PO4, 0.162 mM EDTA sodium, 10 mM glucose, 1.14 mM ascorbic acid) saturated with a mixed gas (95% O and 5% CO2). To 900 μl of this suspention was added a solution of the test drug (10 μl) in DMSO and the mixture was incubated at 37° C. for 5 minutes. Then, 100 μl of ^3 H-5-HT (final concentration 10 nM) was added and the mixture was further incubated at 37° C. for 5 minutes. This reaction mixture was filtered under suction using a GF/B filter and the filter was washed with 4 ml of the above-mentioned buffer. The radioactivity on the filter was measured by the liquid scintillation method.
# (b) Activity to inhibit norepinephrine (NE) uptake
# Using the rat cerebral cortex and, as the substrate, ^3 H-NE, an experiment was performed by otherwise the same procedure as described for 5-HT.
structure (smiles),measurement,setting,value
"COc1cc2c(cc1OC)CC1(CCCCN1CCCCC1(c3ccccc3)COCc3ccccc31)CC2 (centres unmarked) [Example I-52, 3,4-Dihydro-6,7-dimethoxy-1'-[4-(4-phenylisochroman-4-yl)butyl]spiro[naphthalene-2(1H),2'-piperidine] hydrochloride]",IC50,[1],0.03 µM
"c1ccc(CCNCCCC2(c3ccccc3)COCc3ccccc32)cc1 (stereo not drawn) [Example I-24, 4-[3-(β-Phenethylamino)propyl]-4-phenylisochroman hydrochloride]",IC50,serotonine (5-HT) uptake,0.26 µM
same,IC50,[2],0.22 µM
same,IC50,[1],0.9 µM
"COc1ccc2c(c1)CCC1(CCCCN1CCCC1(c3ccccc3)COCc3ccccc31)C2 (centres unmarked) [Example I-36, 3,4-Dihydro-6-methoxy-1'-[3-(4-phenylisochroman-4-yl)propyl]spiro[naphthalene-2(1H),2'-piperidine] hydrochloride]",IC50,serotonine (5-HT) uptake,0.0051 µM
same,IC50,[2],0.41 µM
same,IC50,[1],0.6 µM
"c1ccc(C2(CCCN3CCCCC34CCc3ccccc3C4)COCc3ccccc32)cc1 (centres unmarked) [Example I-35, 3,4-Dihydro-1'-[3-(4-phenylisochroman-4-yl)propyl]spiro[naphthalene-2(1H),2'-piperidine] hydrochloride]",IC50,serotonine (5-HT) uptake,0.13 µM
same,IC50,[2],0.3 µM
same,IC50,[1],0.7 µM
"COC(=O)c1cccc(CNCCCC2(c3ccccc3)COCc3ccccc32)c1 (stereo not drawn) [Example I-45, Methyl α-[3-(4-Phenylisochroman-4-yl)propylamino]-m-toluate hydrochloride]",IC50,[1],0.5 µM
